Type in all cases: physicochemical
Data set [1] can be described thus: Appearance and phase separation of octreotide formulations in SAIB/NMP. The conditions noted are these: for appearance when combined with SAIB/NMP solution: octreotide about 6%. As to the method: A solution of sucrose acetate isobutyrate (SAIB) in N-methyl-2-pyrrolidone (NMP) at a concentration of 80% by weight was prepared by combining 2 g NMP with 8 g SAIB followed by gentle mixing. A clear, low viscosity solution was obtained. Then 60 mg octreotide acetate was dissolved in 100 μL NMP which was combined with 900 μL SAIB solution in NMP (80%) and mixed well to obtain a formulation containing about 6% of octreotide acetate.
Since both SAIB and octreotide acetate were quite soluble in NMP, a clear solution was expected after two solutions in the same solvent (NMP) were mixed. […] Therefore, such a formulation is not suitable for preparation of a stable, single-phase formulation of octreotide in SAIB/NMP solution.
(§1) Octreotide acetate (OCT-Ac), octreotide dodecyl sulfate (OCT-SDS) and octreotide docusate (OCT-DSS) complex powders were dissolved in NMP. Then the solutions containing various salt forms of octreotide were thoroughly mixed with SAIB solution in NMP (90% w/w).
Chunky solid precipitates were observed and an inhomogeneous formulation was obtained as observed in Example 1. This inhomogeneous formulation will block needles and is not suitable for injection. […] This formulation can be prepared immediately prior to administration or suitable for storage for a period of time by adjusting the formulation parameters. […] This formulation may be packaged and stored for a long period of time at room temperature.
Octreotide acetate (OCT-Ac) and octreotide dodecyl sulfate (OCT-SDS) complex powders were dissolved in NMP. Then the solutions containing various salt forms of octreotide were thoroughly mixed with SAIB solution in NMP (90% w/w).
A chunky aggregate was formed at the bottom of the formulation (FIG. 1(a)). This inhomogeneous formulation is clearly not suitable for injection to form a consistent depot system in situ for controlled release.

A short description of data set [2]: In vitro release of pramipexole from SAIB formulations. The following applies: PBS buffer, 37° C., about 6% PPL in 90% SAIB in NMP. As to the method: Formulations containing about 6% PPL of different salt forms were prepared by mixing PPL with 90% SAIB solutions in NMP. Injections of roughly 100 mg were made into vials with 3 mL PBS buffer and 0.1% NaN3. Gel-like pellets formed and the vials were placed on a shaker at 37° C. The release of PPL was measured by removing 2 mL of the release media at specified times and replacing it with 2 mL of fresh buffer. The concentration in the release media was determined by reverse phase HPLC.

Data set [3] can be described thus: Integrity of GEN-DSS SAIB/NMP pellets in PBS buffer. The conditions noted are these: about 6% and 2% GEN-DSS with 90% SAIB in NMP, incubated at 37° C. As to the method:
Formulations containing about 6% and 2% GEN-DSS with 90% SAIB in NMP were prepared. Injections of roughly 100 mg were made into vials with 3 mL PBS buffer and 0.1% NaN3. Gel-like pellets were formed at room temperature.

Data set [4] in a line: Phase behaviour of lysozyme SAIB/NMP pellets in PBS buffer. The conditions noted are these: about 6% with 90% SAIB in NMP, shaker at 37° C. As to the method: Formulations containing about 6% LYZ and LYZ-DSS (85.2% LYZ) with 90% SAIB in NMP were prepared. Injections of roughly 100 mg were made into vials with 3 mL PBS buffer and 0.1% NaN3. Gel-like pellets were formed at room temperature and put on a shaker at 37° C. […] An improved depot system was achieved the complexation of lysozyme with amphiphilic molecule DSS.

Data set [5] is described as follows: In vitro release of leuprolide from SAIB/NMP formulations. The following applies: after two weeks; PBS 7.4, 37° C.; SAIB/NMP formulation, about 6% leuprolide. As to the method: (§2) In another embodiment, the release rate of the compositions of the present invention was determined in vitro. About 0.1 mL of each formulation was injected into 3 mL of releasing buffer (PBS 7.4, containing 0.1% sodium azide) in a 4 mL glass vial. The vials were incubated at 37° C. and sampled at various time points. At each time point, 2 mL of release medium was removed and replaced with 2 mL of fresh release medium. The collected samples were analyzed for bioactive substance concentration and integrity by HPLC using an YMC-Pack ODS-120A column or equivalent. Triplicate samples were used for each formulation.
Formulations were prepared by mixing leuprolide acetate (LA-Ac), leuprolide dodecyl sulfate (LA-SDS), leuprolide docusate (LA-DSS) and leuprolide oleate (LA-OL) complex powders with SAIB solution in NMP (90% w/w).
An aliquot of the suspension was used for the in vitro release. About 0.1 mL of each leuprolide formulation was injected into 3 mL of releasing buffer (PBS 7.4, containing 0.1% sodium azide) in a 4 mL glass vial. The vials were incubated at 37° C. and sampled at various time points. At each time point, 2 mL of release medium was removed and replaced with 2 mL of fresh release medium. The collected samples were analyzed for peptide concentration and integrity by HPLC using an YMC-Pack ODS-120A column. Triplicate samples were used for each formulation.

Data set [6] can be described thus: In vitro release of doxorubicin from SAIB/NMP formulations. The conditions noted are these: for Release (%) of DOX: 24 h, PBS 7.4, 37° C., 6% DOX loading. How it is done: Formulations were prepared using doxorubicin-HCl (DOX-HCl) and doxorubicin docusate (DOX-DSS) complex powders. Formulations were prepared by mixing DOX-HCL and DOX-DSS with SAIB solution in NMP to achieve 6% DOX loading as shown in Table 6.
An aliquot of the suspension was used for studying the in vitro release of DOX from different formulations. About 0.1 mL of each DOX formulation was injected into 3 mL of releasing buffer (PBS 7.4, containing 0.1% sodium azide) in a 4 mL glass vial. The vials were incubated at 37° C. and sampled at various time points. At each time point, 2 mL of release medium was removed and replaced with 2 mL of fresh release medium. The collected samples were analyzed for peptide concentration and integrity by HPLC using an YMC-Pack ODS-120A column. Triplicate samples were used for each formulation.

Data set [7] is described as follows: Stability of the octreotide in formulations at room temperature over time (HPLC). The following applies: SAIB/NMP formulation.
Excerpt: Those peaks were not observed from the formulation at the beginning, indicating the generation of impurities or degradation products of the octreotide. The intensity of these peaks increased with the increase of time, while the peak for octreotide decreases over time. […] Therefore, this type of formulation must be modified to be suitable for controlled release delivery of various bioactive substances.
as §1
After two hours, about 4% of the octreotide was degraded or reacted.

The nature of data set [8]: In vitro release of octreotide from SAIB/NMP formulations. The conditions noted are these: PBS 7.4, 37° C., SAIB/NMP formulation, about 6% octreotide. How it is done:
as §2
An aliquot of the suspension was used for the in vitro release. About 0.1 mL of each formulation containing octreotide was injected into 3 mL of releasing buffer (PBS 7.4, containing 0.1% sodium azide) in a 4 mL glass vial. The vials were incubated at 37° C. and sampled at various time points. At each time point, 2 mL of release medium was removed and replaced with 2 mL of fresh release medium. The collected samples were analyzed for peptide concentration and integrity by HPLC using an YMC-Pack ODS-120A column. Triplicate samples were used for each formulation.

Counter-ions that a name gives are not always drawn.

Results on eleven compounds are retold here after patent US8586103B2, “Non-polymeric compositions for controlled drug delivery” (Foresee Pharmaceuticals, LLC, priority 2008, dated 2013).

For octreotide docusate [OCT-DSS], the “appearance when combined with SAIB/NMP solution” value in data set [1] (Example 7, SAIB about 70%) is “transparent uniform solution”.
`CCCN[C@H]1CCc2nc(N)sc2C1.Cl` [PPL-HCl]: the pramipexole released result is recorded as “about 90%” in data set [2] (after one week) and “More than 60%” in data set [2] (within 24 hours).
In the case of Gentamycin Docusate [GEN-DSS], the “behaviour of gel-like pellets” value in data set [3] was “began to disintegrate and fall apart within a few hours”.
Turning to Lysozyme Docusate [LYZ-DSS], the “phase behaviour of pellets” value in data set [4] is reported as “remained one phase”.
For the compound `CCNC(=O)[C@@H]1CCCN1C(=O)[C@H](CCCNC(=N)N)NC(=O)[C@H](CC(C)C)NC(=O)[C@@H](CC(C)C)NC(=O)[C@H](Cc1ccc(O)cc1)NC(=O)[C@H](CO)NC(=O)[C@H](Cc1c[nH]c2ccccc12)NC(=O)[C@H](Cc1c[nH]cn1)NC(=O)[C@@H]1CCC(=O)N1` [LA-Ac, leuprolide acetate], the leuprolide released entry in data set [5] is “almost all”.
On the same count and under the same terms, the value for leuprolide oleate [LA-OL] was “almost all”.
For `CCCCC(CC)COC(=O)CC(C(=O)OCC(CC)CCCC)S(=O)(=O)O.COc1cccc2c1C(=O)c1c(O)c3c(c(O)c1C2=O)CC(O)(C(=O)CO)CC3OC1CC(N)C(O)C(C)O1` (centres unmarked) [DOX-DSS, doxorubicin docusate], the “Release (%) of DOX” value in data set [6] was “Less than 8%”. Moreover, the “reduction of the initial burst release of DOX by complexation with DSS” value in data set [6] (versus DOX-HCl formulation) is listed as about 10 fold.
For octreotide dodecyl sulfate [OCT-SDS], the “appearance when combined with SAIB/NMP solution” value in data set [1] (Example 7, SAIB about 70%) is “homogeneous suspension”; in data set [1] (Example 8, SAIB about 80%), “homogeneous milky suspension”. Besides, the “phase separation after 24 hours” value in data set [1] (Example 8, SAIB about 80%, room temperature, 24 h) was “no significant phase separation”.
As to lysozyme [LYZ], the “phase behaviour of pellets” value in data set [4] is given as “phase separated after one day”.
As for `C[C@@H](O)[C@@H]1NC(=O)[C@H](CCCCN)NC(=O)[C@@H](Cc2c[nH]c3ccccc23)NC(=O)[C@H](Cc2ccccc2)NC(=O)[C@@H](NC(=O)[C@H](N)Cc2ccccc2)CSSC[C@@H](C(=O)N[C@H](CO)[C@@H](C)O)NC1=O` [OCT-Ac, octreotide acetate], in data set [1] (Example 1, about 6% octreotide acetate, SAIB solution in NMP (80%)), the “appearance on mixing with SAIB solution in NMP” value is on record as “opaque suspension with chunky aggregates”. In addition, the “phase separation on standing” value in data set [1] (Example 1, room temperature overnight) is given as “two distinguished phases”; in data set [1] (Example 1, room temperature, within a few hours), “appearance of phase separation was observed”. Besides, the “appearance when combined with SAIB/NMP solution” value in data set [1] (Example 7, SAIB about 70%) is reported as “phase separation occurred immediately”; in data set [1] (Example 8, SAIB about 80%), “phase separation occurred even faster”. In data set [7] (after 5 days), the octreotide degraded entry was “More than half”. Further, the “octreotide degraded or reacted” value in data set [7] (after two hours) was “about 4%”. Moreover, the results for the octreotide released entry in data set [8] (after two weeks) and in data set [8] (within 24 hours) were “more than 90%” and “More than 60%”, respectively.
For the compound `COc1cccc2c1C(=O)c1c(O)c3c(c(O)c1C2=O)C[C@@](O)(C(=O)CO)C[C@@H]3O[C@H]1C[C@H](N)[C@H](O)[C@H](C)O1` [DOX-HCl, doxorubicin hydrochloride], the “Release (%) of DOX” value in data set [6] is “More than 70%”.
